Test results from patent US8940740B2, “Small molecule inhibitors of bacterial motility and a high throughput screening assay for their identification” (priority 2010, dated 2015).
In brackets after ≈: the same amount, converted by molar mass.

Columns and labels:
[1] = test system: Vibrio cholerae strain C7258; assay: Bacterial viability/toxicity readout with alamarBlue in 384-well soft agar HTS assay; format: cell-based; details: for IC50: Vibrio cholerae, C7258, toxicity of compound to bacteria as measured by alamarBlue, read-out: Inhibition IC50
[2] = test system: polar flagellum / flagellin FlaA of V. cholerae strain C7258; assay: Flagellum assembly by transmission electron microscopy and FlaA western blot; format: cell-based, Vibrio cholerae
[3] = test system: Vibrio cholerae strain C7258; assay: Growth of strain C7258 in broth containing test compound; format: cell-based; details: strain C7258, LB medium; Q24DA 10 μg/mL (FIG. 2)
[4] = test system: V. cholerae biofilm formation; format: cell-based, Vibrio cholerae
[5] = test system: cholera toxin and toxin-co-regulated pilus production by strain C7258; format: cell-based, Vibrio cholerae
[6] = test system: Vibrio cholerae strain C7258; assay: Swarm agar plates stabbed with saturated cultures; format: cell-based; details: swarm agar stabbed with saturated culture of strain C7258
[7] = test system: Vibrio cholerae strain C7258; assay: Bacterial motility in 384-well soft agar HTS assay, off-site OD615 reading; format: cell-based; details: for IC50: Vibrio cholerae, C7258, inhibition of bacterial motility, optical density read off-site from inoculation point, read-out: Motility OD IC50; for Control average OD615 in pilot screen: pilot screen control wells
[8] = test system: V. cholerae 0395, V. parahaemolyticus, V. vulnificus; assay: Swarm agar plates with different pathogenic Vibrios; format: cell-based, Vibrio; details: polar (SMF) vs lateral (PMF) flagellum
Excerpt: V. cholerae and V. vulnificus make a single polar flagellum (Fla) powered by sodium motive force (SMF). […] (A) V. cholerae 0395; (B) V. parahaemolyticus B22 (Fla^+ Laf^+); (C) V. parahaemolyticus LM5674 (Fla^+ Laf^+); (D) V. parahaemolyticus LM1017 (Fla^+ Laf^−); (E) V. parahaemolyticus LM5392 (Fla^− Laf^+); (F) V. parahaemolyticus 7890 (Fla^+ Laf^−); (G) V. vulnificus LAM624.

[9] = test system: Vibrio cholerae strain C7258; assay: Growth with PMF blocked by CCCP (Na+ bioenergetics); format: cell-based; details: LB pH 8.6, 0.3 M NaCl, CCCP 5 μM, Q24DA 10 μg/mL
[10] = assay validation, phenamil at 100 μM

SMILES | IC50 [1] [µg/mL] | IC50 [7] [µg/mL] | further results
Cc1ccc(C)c(Nc2nc(NCCO)c3ccccc3n2)c1 [AB00343282] | 25.7 (≈ 83.2 µM) | 8.76 (≈ 28.4 µM) | Level of expression of major flagellin protein FlaA ([2]; Western blot analysis): nor did it affect; Expression, secretion and assembly of wild type flagellum ([2]; transmission electron microscopy): does not inhibit; Effect on growth rate in broth [3]: no effect on growth rate; Biofilm formation [4]: negative effect on biofilm formation; V. cholerae virulence gene expression [5]: inhibits V. cholerae virulence gene expression; Motility in swarm agar (spread from inoculation site) ([6]; listed as Q24DA): motility inhibition; Motility in swarm agar (spread from inoculation site) ([6]; listed as quinazoline 2,4 diamine): completely abolished motility; Flagellum specificity among pathogenic Vibrios [8]: specific for the polar flagellum powered by SMF; Effect on growth inhibition by blocking the PMF [9]: enhances the inhibitory effect of blocking the PMF
COc1ccc(C)cc1Nc1nc(N)c2ccccc2n1 [compound 27284] | > 100 | 81.2 (≈ 290 µM) | 
Cc1ccc(Nc2nc(NCc3ccco3)c3ccccc3n2)cc1 [compound 27296] | 11.1 (≈ 33.5 µM) | 3.77 (≈ 11.4 µM) | 
Oc1ccccc1Nc1nc(NCc2ccco2)c2ccccc2n1 [compound 27297] | 81.9 (≈ 246 µM) | 37.8 (≈ 114 µM) | 
Fc1ccccc1Nc1nc(NCc2ccccc2)c2ccccc2n1 [compound 27299] | 100 (≈ 290 µM) | 6.37 (≈ 18.5 µM) | 
COc1ccc(Nc2nc(N3CCCC3)nc3ccccc23)c(OC)c1 [compound 27301] | 82 (≈ 234 µM) | 46.6 (≈ 133 µM) | 
c1ccc(CN2CCN(c3nc(NCc4ccco4)c4ccccc4n3)CC2)cc1 [compound 27307] | 37.9 (≈ 94.8 µM) | 34.9 (≈ 87.3 µM) | 
O=[N+]([O-])c1ccc(N2CCN(c3nc(N4CCN(CCO)CC4)nc4ccccc34)CC2)cc1 [compound 27310] | 55.4 (≈ 120 µM) | 77.2 (≈ 167 µM) | 
OCCNc1nc(NCc2ccco2)nc2ccccc12 [compound 27908] | > 100 | 45.6 (≈ 160 µM) | 
OCCNc1nc(Nc2cccc(O)c2)nc2ccccc12 [compound 27910] | 47 (≈ 159 µM) | 22.2 (≈ 74.8 µM) | 
OCCNc1nc(Nc2ccccc2O)nc2ccccc12 [compound 27911] | 34.2 (≈ 116 µM) | 29.5 (≈ 99.7 µM) | 
OCCNc1nc(Nc2ccccc2F)nc2ccccc12 [compound 27912] | 14.4 (≈ 48.4 µM) | 4.89 (≈ 16.4 µM) | 
Cc1cc(C)cc(Nc2nc(NCCO)c3ccccc3n2)c1 [compound 27914] | 10.1 (≈ 32.6 µM) | 6.96 (≈ 22.6 µM) | 
Cc1ccc(O)c(Nc2nc(NCCO)c3ccccc3n2)c1 [compound 27915] | 23 (≈ 74.2 µM) | 29.9 (≈ 96.2 µM) | 
COc1ccccc1Nc1nc(NCCO)c2ccccc2n1 [compound 27916] | 38.1 (≈ 123 µM) | 49.5 (≈ 159 µM) | 
OCCNc1nc(NCCc2cccs2)nc2ccccc12 [compound 27917] | 27 (≈ 85.9 µM) | 19.7 (≈ 62.7 µM) | 
Cc1ccc(Nc2nc(NCCO)c3ccccc3n2)c(C)c1 [compound 27918] | 15.6 (≈ 50.4 µM) | 6.1 (≈ 19.8 µM) | 
OCCNc1nc(Nc2ccc3c(c2)OCO3)nc2ccccc12 [compound 27919] | 29.8 (≈ 91.8 µM) | 10.8 (≈ 33.2 µM) | 
c1coc(CNc2nc(NCC3CCCO3)c3ccccc3n2)c1 (stereo not drawn) [compound 27926] | 35.6 (≈ 110 µM) | 24.7 (≈ 76.2 µM) | 
Oc1ccccc1Nc1nc(NCC2CCCO2)c2ccccc2n1 (stereo not drawn) [compound 27928] | 19.4 (≈ 57.6 µM) | 16.5 (≈ 49 µM) | 
Cc1cc(C)cc(Nc2nc(NCC3CCCO3)c3ccccc3n2)c1 (stereo not drawn) [compound 27929] | 6.11 (≈ 17.5 µM) | 6.89 (≈ 19.8 µM) | 
FC(F)(F)c1cccc(Nc2nc(NCC3CCCO3)c3ccccc3n2)c1 (stereo not drawn) [compound 27930] | 81.2 (≈ 209 µM) | 7.59 (≈ 19.5 µM) | 
NC(=Nc1ccccc1)NC(=O)c1nc(Cl)c(N)nc1N [phenamil, reference compound] |  |  | Effect on viability (alamarBlue reading) [1, 10]: little effect on viability; Effect on motility (OD615 reading) [7, 10]: inhibitory effect on motility; Control average OD615 in pilot screen [7]: Ave-0.10 OD615, CV-3.2
CN(C)[C@@H]1C(O)=C(C(N)=O)C(=O)[C@@]2(O)C(O)=C3C(=O)c4c(O)cccc4[C@@](C)(O)[C@H]3C[C@@H]12 [tetracycline, reference compound] |  |  | Control average OD615 in pilot screen [7]: Ave-0.10 OD615, CV-3.6
